From patent US20130012546A1 (priority 2009, published 2013)

Columns and labels:
Phytophthora infestans = assay type: in vivo; details: tomato plants, preventive spray, 100 ppm of active ingredient, evaluated 7 days after inoculation
logP(HCOOH) by HPLC = assay type: physicochemical; details: HPLC on reversed phase columns
[1] = pH 2.7, 0.1% formic acid in water / acetonitrile, linear gradient 10% to 95% acetonitrile, EEC directive 79/831 Annex V.A8
[2] = pH 2.7, 0.1% formic acid in water / acetonitrile gradient

SMILES	Efficacy % (Phytophthora infestans) [%]	log p (logP(HCOOH) by HPLC; [1])	log p (logP(HCOOH) by HPLC; [2])
CON=C(C(=O)Nc1cccc(CON=C(c2ccccc2)c2nnnn2C)n1)c1ccc(Cl)cc1Cl [Example 1]	95	4.7	–
CON=C(C(=O)Nc1cccc(CON=C(c2ccccc2)c2nnnn2C)n1)c1ccccc1Cl [Example 2]	98	4.13	–
CON=C(C(=O)Nc1cccc(CON=C(c2ccccc2)c2nnnn2C)n1)c1ccc(Cl)cc1 [Example 3]	75	4.51	–
C#CCOCC(=O)Nc1cccc(CON=C(c2ccccc2)c2nnnn2C)n1 [Example 4]	85	2.8	–
C=CCCCOCC(=O)Nc1cccc(CON=C(c2ccccc2)c2nnnn2C)n1 [Example 5]	95	3.78	–
CON=C(C(=O)Nc1nc(CON=C(c2ccccc2)c2nnnn2C)cs1)c1ccc(Cl)cc1 [Example 7]	95	4.27	–
CON=C(C(=O)Nc1nc(CON=C(c2ccccc2)c2nnnn2C)cs1)c1ccc(Br)cc1 [Example 8]	93	4.37	–
CON=C(C(=O)Nc1nc(CON=C(c2ccccc2)c2nnnn2C)cs1)c1ccc(Cl)cc1Cl [Example 9]	95	4.41	–
CON=C(C(=O)Nc1nc(CON=C(c2ccccc2)c2nnnn2C)cs1)c1cccc(Cl)c1Cl [Example 11]	95	4.27	–
C#CCOCC(=O)Nc1nc(CON=C(c2ccccc2)c2nnnn2C)cs1 [Example 13]	85	2.64	–
Cc1nnnn1C(=NOCc1cccc(NC(=O)OCCC2CCCCC2)n1)c1ccccc1 [Example 15]	95	5.19	–
Cc1nnnn1C(=NOCc1cccc(NC(=O)OCC2CC2)n1)c1ccccc1 [Example 17]	93	3.52	–
Cc1nnnn1C(=NOCc1cccc(NC(=O)OCCCC2CCCCC2)n1)c1ccccc1 [Example 19]	95	5.62	–
Cc1nnnn1C(=NOCc1cccc(NC(=O)OCCCC2CCCC2)n1)c1ccccc1 [Example 21]	95	5.25	–
Cn1nnnc1C(=NOCc1csc(NC(=O)OC2CC3CCC2(C)C3(C)C)n1)c1ccccc1 (stereo not drawn) [Example 104]	93	–	–
Cn1nnnc1C(=NOCc1csc(NC(=O)OC2CC3CCC2(C)C3(C)C)n1)c1cccc(F)c1 (stereo not drawn) [Example 105]	80	–	–
Cc1nnnn1C(=NOCc1csc(NC(=O)C(C)OC2CCC2)n1)c1ccccc1 (stereo not drawn) [compound 165]	–	3.46	–
CCC(OC1CCCCC1)C(=O)Nc1nc(CON=C(c2ccccc2)n2nnnc2C)cs1 (stereo not drawn) [compound 166]	–	4.56	–
CCC(OC1CCC1)C(=O)Nc1nc(CON=C(c2ccccc2)n2nnnc2C)cs1 (stereo not drawn) [compound 167]	–	3.83	–
CCC(OC1CCCC1)C(=O)Nc1nc(CON=C(c2ccccc2)n2nnnc2C)cs1 (stereo not drawn) [compound 168]	–	4.24	–
CCC(OC1CCCCCC1)C(=O)Nc1nc(CON=C(c2ccccc2)n2nnnc2C)cs1 (stereo not drawn) [compound 169]	–	4.93	–
Cc1nnnn1C(=NOCc1csc(NC(=O)C(C)OC2CCCC(C)C2)n1)c1ccccc1 (stereo not drawn) [compound 170]	–	4.53	–
Cc1nnnn1C(=NOCc1csc(NC(=O)C(C)OC2CCC(C)CC2)n1)c1ccccc1 (stereo not drawn) [compound 171]	–	4.53	–
CC(OC1CCC1)C(=O)Nc1nc(CON=C(c2ccccc2)c2nnnn2C)cs1 (stereo not drawn) [compound 172]	–	3.39	–
CCC(OC1CCCCC1)C(=O)Nc1nc(CON=C(c2ccccc2)c2nnnn2C)cs1 (stereo not drawn) [compound 173]	–	4.42	–

SMILES	Efficacy % (Phytophthora infestans) [%]	log p (logP(HCOOH) by HPLC; [1])	log p (logP(HCOOH) by HPLC; [2])
CCC(OC1CCC1)C(=O)Nc1nc(CON=C(c2ccccc2)c2nnnn2C)cs1 (stereo not drawn) [compound 174]	–	3.76	–
CCC(OC1CCCC1)C(=O)Nc1nc(CON=C(c2ccccc2)c2nnnn2C)cs1 (stereo not drawn) [compound 175]	–	4.16	–
CCC(OC1CCCCCC1)C(=O)Nc1nc(CON=C(c2ccccc2)c2nnnn2C)cs1 (stereo not drawn) [compound 176]	–	4.87	–
CC1CCCC(OC(C)C(=O)Nc2nc(CON=C(c3ccccc3)c3nnnn3C)cs2)C1 (stereo not drawn) [compound 177]	–	4.44	–
CC1CCC(OC(C)C(=O)Nc2nc(CON=C(c3ccccc3)c3nnnn3C)cs2)CC1 (stereo not drawn) [compound 178]	–	4.44	–
Cn1nnnc1C(=NOCc1csc(NC(=O)C(OC2CCCCC2)c2ccccc2)n1)c1ccccc1 (stereo not drawn) [compound 179]	–	4.82	–
CC(OC1CCCCC1)C(=O)Nc1cccc(CON=C(c2ccccc2)c2nnnn2C2CC2)n1 (stereo not drawn) [compound 180]	–	4.93	–
CC(OC1CCCCC1)C(=O)Nc1ccc(Br)c(CON=C(c2ccccc2)c2nnnn2C)n1 (stereo not drawn) [compound 181]	–	5.11	–
Cc1nnnn1C(=NOCc1cccc(NC(=O)C(C)OC2CCCCC2)n1)c1ccccc1 (stereo not drawn) [compound 182]	–	4.46	–
Cc1nnnn1C(=NOCc1cccc(NC(=O)C(C)OC2CCCC2)n1)c1ccccc1 (stereo not drawn) [compound 183]	–	4.12	–
Cc1nnnn1C(=NOCc1cccc(NC(=O)C(C)OC2CCCCCC2)n1)c1ccccc1 (stereo not drawn) [compound 184]	–	4.86	–
Cc1nnnn1C(=NOCc1cccc(NC(=O)C(C)OC2CCC2)n1)c1ccccc1 (stereo not drawn) [compound 185]	–	3.74	–
CCC(OC1CCCCC1)C(=O)Nc1cccc(CON=C(c2ccccc2)n2nnnc2C)n1 (stereo not drawn) [compound 186]	–	4.91	–
CCC(OC1CCC1)C(=O)Nc1cccc(CON=C(c2ccccc2)n2nnnc2C)n1 (stereo not drawn) [compound 187]	–	4.2	–
CCC(OC1CCCC1)C(=O)Nc1cccc(CON=C(c2ccccc2)n2nnnc2C)n1 (stereo not drawn) [compound 188]	–	4.65	–
CCC(OC1CCCCCC1)C(=O)Nc1cccc(CON=C(c2ccccc2)n2nnnc2C)n1 (stereo not drawn) [compound 189]	–	5.41	–
Cc1nnnn1C(=NOCc1cccc(NC(=O)C(C)OC2CCCC(C)C2)n1)c1ccccc1 (stereo not drawn) [compound 190]	–	4.96	–
Cc1nnnn1C(=NOCc1cccc(NC(=O)C(C)OC2CCC(C)CC2)n1)c1ccccc1 (stereo not drawn) [compound 191]	–	4.93	–
CC(OC1CCC1)C(=O)Nc1cccc(CON=C(c2ccccc2)c2nnnn2C)n1 (stereo not drawn) [compound 192]	–	3.7	–
CCC(OC1CCCCC1)C(=O)Nc1cccc(CON=C(c2ccccc2)c2nnnn2C)n1 (stereo not drawn) [compound 193]	–	–	4.88
CCC(OC1CCC1)C(=O)Nc1cccc(CON=C(c2ccccc2)c2nnnn2C)n1 (stereo not drawn) [compound 194]	–	–	4.11
CCC(OC1CCCCCC1)C(=O)Nc1cccc(CON=C(c2ccccc2)c2nnnn2C)n1 (stereo not drawn) [compound 195]	–	–	5.27
CCC(OC1CCCC1)C(=O)Nc1cccc(CON=C(c2ccccc2)c2nnnn2C)n1 (stereo not drawn) [compound 196]	–	–	4.51
CC1CCCC(OC(C)C(=O)Nc2cccc(CON=C(c3ccccc3)c3nnnn3C)n2)C1 (stereo not drawn) [compound 197]	–	–	4.81
CC1CCC(OC(C)C(=O)Nc2cccc(CON=C(c3ccccc3)c3nnnn3C)n2)CC1 (stereo not drawn) [compound 198]	–	–	4.81

SMILES	Efficacy % (Phytophthora infestans) [%]	log p (logP(HCOOH) by HPLC; [1])	log p (logP(HCOOH) by HPLC; [2])
Cn1nnnc1C(=NOCc1csc(NC(=O)CON=C2CCCCC2)n1)c1ccccc1 [compound 200]	–	–	3.46
CC(=NOCC(=O)Nc1cccc(CON=C(c2ccccc2)n2nnnc2C)n1)c1ccccc1 [compound 202]	–	–	3.94
CC(C)=NOC(C)C(=O)Nc1cccc(CON=C(c2ccccc2)n2nnnc2C)n1 (stereo not drawn) [compound 203]	–	–	3.35
CC(=NOCC(=O)Nc1cccc(CON=C(c2ccccc2)n2nnnc2C)n1)C(C)(C)C [compound 204]	–	–	4.34
CC1=C(CC(C)OC(=O)Nc2nc(CON=C(c3ccccc3)n3nnnc3C)cs2)C1(C)C (stereo not drawn) [compound 207]	–	–	4.86
CC1=C(CC(C)OC(=O)Nc2nc(CON=C(c3ccccc3)n3nnnc3C)cs2)C1 (stereo not drawn) [compound 208]	–	–	4.11
CC1=C(CC(C)OC(=O)Nc2nc(CON=C(c3ccccc3)c3nnnn3C)cs2)C1(C)C (stereo not drawn) [compound 209]	–	–	4.68
CC1=C(CC(C)OC(=O)Nc2nc(CON=C(c3ccccc3)c3nnnn3C)cs2)C1 (stereo not drawn) [compound 210]	–	–	4.06
Cn1nnnc1C(=NOCc1csc(NC(=O)OC2CCc3ccccc3C2)n1)c1ccccc1 (stereo not drawn) [compound 211]	–	–	4.14
CC(C)=NOCCOC(=O)Nc1cccc(CON=C(c2ccccc2)c2nnnn2C)n1 [compound 213]	–	–	3.11
CC=NOCCOC(=O)Nc1cccc(CON=C(c2ccccc2)c2nnnn2C)n1 [compound 214]	–	–	2.96
CC1=C(CC(C)OCC(=O)Nc2nc(CON=C(c3ccccc3)n3nnnc3C)cs2)C1 (stereo not drawn) [compound 215]	–	–	4.11
CC1=C(CC(C)OCC(=O)Nc2nc(CON=C(c3ccccc3)n3nnnc3C)cs2)C1(C)C (stereo not drawn) [compound 216]	–	–	4.91
Cc1nnnn1C(=NOCc1csc(NC(=O)CC=COc2ccccc2)n1)c1ccccc1 [compound 217]	–	–	3.61
CC1=C(CC(C)OCC(=O)Nc2nc(CON=C(c3ccccc3)c3nnnn3C)cs2)C1(C)C (stereo not drawn) [compound 218]	–	–	4.83
CC1=C(CC(C)OCC(=O)Nc2nc(CON=C(c3ccccc3)c3nnnn3C)cs2)C1 (stereo not drawn) [compound 219]	–	–	4.03
Cn1nnnc1C(=NOCc1csc(NC(=O)CC=COc2ccccc2)n1)c1ccccc1 [compound 220]	–	–	3.57
CC1=C(CC(C)OCC(=O)Nc2cccc(CON=C(c3ccccc3)n3nnnc3C)n2)C1 (stereo not drawn) [compound 221]	–	–	4.37
CC1=C(CC(C)OCC(=O)Nc2cccc(CON=C(c3ccccc3)n3nnnc3C)n2)C1(C)C (stereo not drawn) [compound 222]	–	–	5.42
CC1=C(CC(C)OCC(=O)Nc2cccc(CON=C(c3ccccc3)c3nnnn3C)n2)C1 (stereo not drawn) [compound 223]	–	–	4.3
CC1=C(CC(C)OCC(=O)Nc2cccc(CON=C(c3ccccc3)c3nnnn3C)n2)C1(C)C (stereo not drawn) [compound 224]	–	–	5.14
Cn1nnnc1C(=NOCc1csc(NC(=O)CC[Si](C)(C)C)n1)c1ccccc1 [compound 227]	–	–	4.01
Cn1nnnc1C(=NOCc1csc(NC(=O)OCCCC#C[Si](C)(C)C)n1)c1ccccc1 [compound 228]	–	–	4.71
